Test [1] can be described thus: HepG2 cell cytotoxicity, dose response, cytotoxicity control for Shn3 inhibitor project, CellTiter-Glo, cherry-picked (AID 624134). Format: functional, cell-based.
Test [2] relates to CHO. The test can be described thus: cytotoxicity in TLR9-MyD88 CHO cells, dose response, cytotoxicity control for TLR9-MyD88 binding inhibitor project, cell-based, luminescence (AID 588339).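 Also: CHO cells stably coexpressing TLR9 and MyD88 fusions from primary screen; compound exposure lasted 48 hours before viability readout.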 The format is functional, hamster. The note with it: Cricetulus griseus.
The target of test [3] is T1, Fatty acid synthase (Homo sapiens, UniProt P49327). Kind of test: FAS thioesterase domain inhibitors, dose response, biochemical, endpoint fluorescence intensity, uHTS hits (AID 624327).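 Also: fluorescence from hydrolysis of an O-methyl fluorescein acyl ester substrate by the enzyme.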 Format: functional.
Test [4] in a line: inhibitors of PGC1a acetylation in cells, dose response, cell-based, cherry-picked samples (AID 720514).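 Also: potency may reflect raised or lowered acetylation signal.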 The format is functional.
Test [5] in a line: Shn3 3'UTR reporter inhibitors, dose response, cell-based, Clone20 osteoblasts, firefly luciferase, cherry-picked (AID 624132).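 Also: firefly luciferase luminescence from reporter carrying the Shn3 3'UTR in osteoblasts.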 Format: functional.
Test [6] can be described thus: control 3'UTR Renilla luciferase suppression, dose response, counter-screen for Shn3 inhibitor project, cell-based, Clone20-Shn3RL, cherry-picked (AID 624133). Format: functional. (In general: Counterscreens check selectivity or assay interference.)
The target in test [7] is Beta-2 adrenergic receptor (Homo sapiens, UniProt P07550). Kind of test: beta2AR agonists driving receptor internalization, dose response, cell-based, FAP fluorogen, flow cytometry, cherry pick 1 (AID 588763). Format: functional.
Test [8] deals with T1, Fatty acid synthase. Kind of test: FAS thioesterase domain inhibitors, dose response, biochemical, kinetic fluorescence intensity (AID 624326).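 Also: rate of fluorescence rise from hydrolysis of a fluorogenic O-methyl fluorescein ester substrate.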 The format is functional.
Test [9] deals with Heat shock protein HSP 90-alpha (Homo sapiens, UniProt P07900). The format is functional, organism-based.
Test [10] deals with Beta Lactamase (Pseudomonas aeruginosa, UniProt Q932Y6). Kind of test: beta-lactamase reporter inhibitor potency, dose response, artefact control for TLR9-MyD88 binding inhibitor project, BLA reporter cells, FRET fluorescence (AID 588341).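 Also: cell based assay in CHO-K1 cells stably expressing beta-lactamase.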 The format is cell-based.
Test [11] has as its target Phospholipase A2 (Homo sapiens, UniProt P04054). Format: functional.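 Also: confirmatory dose-response counterscreen on phospholipase A2, testing hits that came from an ultra-high-throughput screen for ATG4B inhibitors.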
The target in test [12] is Cysteine protease ATG4B (Homo sapiens, UniProt Q9Y4P1). The format is functional.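 Also: Fluorescence-based dose-response confirmation assay measuring inhibition of ATG4B activity.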
Test [13] in a line: growth suppression of PTEN-null colon cells, dose response, cell-based, HCT116 PTEN knockout (AID 1047).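 Also: HCT116 colon tumor cells with PTEN knocked out; cells exposed to compound for 60 hours before readout; potency for loss of cell viability measured by luminescence.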 The format is functional.
Test [14] concerns the target T2, Zinc finger protein mex-5 (Caenorhabditis elegans, UniProt Q9XUB2).
T2 sequence (Q9XUB2 whole entry): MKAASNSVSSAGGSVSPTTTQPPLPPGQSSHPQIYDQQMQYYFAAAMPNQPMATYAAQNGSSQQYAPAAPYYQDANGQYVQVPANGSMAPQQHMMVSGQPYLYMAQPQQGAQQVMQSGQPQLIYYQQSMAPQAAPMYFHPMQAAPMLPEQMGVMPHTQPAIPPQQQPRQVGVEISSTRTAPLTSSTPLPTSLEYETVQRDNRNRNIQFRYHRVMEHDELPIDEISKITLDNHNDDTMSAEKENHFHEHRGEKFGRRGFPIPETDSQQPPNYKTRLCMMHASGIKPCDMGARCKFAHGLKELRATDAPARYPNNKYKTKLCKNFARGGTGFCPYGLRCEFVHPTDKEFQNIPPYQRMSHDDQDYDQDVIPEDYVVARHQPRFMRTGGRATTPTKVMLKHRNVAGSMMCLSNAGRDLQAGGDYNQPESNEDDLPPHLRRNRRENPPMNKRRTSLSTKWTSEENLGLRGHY
Kind of test: MEX-5/TCR-2 RNA interaction inhibitors, dose response, biochemical, C. elegans, fluorescence polarization (AID 1960). A general note: Polarisation of emitted light reports the rotation of a fluorescent probe.

Test [15] is described as follows: growth suppression of beta-catenin-knockout colon cells, dose response, cell-based, HCT116, human colon tumor (AID 1045).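 Also: HCT116 colon tumor cells with beta catenin knocked out; cells exposed to compound for 60 hours.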 The format is functional.
The target of test [16] is T3, RNA-binding protein pos-1 (Caenorhabditis elegans, UniProt G5EF15).
T3 sequence (G5EF15 whole entry): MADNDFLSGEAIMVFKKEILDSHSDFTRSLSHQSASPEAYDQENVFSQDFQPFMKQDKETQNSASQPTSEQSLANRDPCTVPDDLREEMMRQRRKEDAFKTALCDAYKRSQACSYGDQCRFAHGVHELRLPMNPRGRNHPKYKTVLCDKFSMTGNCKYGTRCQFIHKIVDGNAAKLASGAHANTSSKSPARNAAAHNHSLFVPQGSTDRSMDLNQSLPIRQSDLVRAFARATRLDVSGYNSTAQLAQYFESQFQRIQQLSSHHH
The test can be described thus: inhibitors of POS-1/mex-3 RNA binding, dose response, biochemical, fluorescence polarization (AID 1964).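 Also: purified POS-1 fused to maltose binding protein made in E. coli; potency of compounds blocking POS-1 binding to fluorescent RNA.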

Test [17] deals with T4, Sentrin-specific protease 7 (Homo sapiens, UniProt Q9BQF6).
T4 sequence (Q9BQF6 whole entry): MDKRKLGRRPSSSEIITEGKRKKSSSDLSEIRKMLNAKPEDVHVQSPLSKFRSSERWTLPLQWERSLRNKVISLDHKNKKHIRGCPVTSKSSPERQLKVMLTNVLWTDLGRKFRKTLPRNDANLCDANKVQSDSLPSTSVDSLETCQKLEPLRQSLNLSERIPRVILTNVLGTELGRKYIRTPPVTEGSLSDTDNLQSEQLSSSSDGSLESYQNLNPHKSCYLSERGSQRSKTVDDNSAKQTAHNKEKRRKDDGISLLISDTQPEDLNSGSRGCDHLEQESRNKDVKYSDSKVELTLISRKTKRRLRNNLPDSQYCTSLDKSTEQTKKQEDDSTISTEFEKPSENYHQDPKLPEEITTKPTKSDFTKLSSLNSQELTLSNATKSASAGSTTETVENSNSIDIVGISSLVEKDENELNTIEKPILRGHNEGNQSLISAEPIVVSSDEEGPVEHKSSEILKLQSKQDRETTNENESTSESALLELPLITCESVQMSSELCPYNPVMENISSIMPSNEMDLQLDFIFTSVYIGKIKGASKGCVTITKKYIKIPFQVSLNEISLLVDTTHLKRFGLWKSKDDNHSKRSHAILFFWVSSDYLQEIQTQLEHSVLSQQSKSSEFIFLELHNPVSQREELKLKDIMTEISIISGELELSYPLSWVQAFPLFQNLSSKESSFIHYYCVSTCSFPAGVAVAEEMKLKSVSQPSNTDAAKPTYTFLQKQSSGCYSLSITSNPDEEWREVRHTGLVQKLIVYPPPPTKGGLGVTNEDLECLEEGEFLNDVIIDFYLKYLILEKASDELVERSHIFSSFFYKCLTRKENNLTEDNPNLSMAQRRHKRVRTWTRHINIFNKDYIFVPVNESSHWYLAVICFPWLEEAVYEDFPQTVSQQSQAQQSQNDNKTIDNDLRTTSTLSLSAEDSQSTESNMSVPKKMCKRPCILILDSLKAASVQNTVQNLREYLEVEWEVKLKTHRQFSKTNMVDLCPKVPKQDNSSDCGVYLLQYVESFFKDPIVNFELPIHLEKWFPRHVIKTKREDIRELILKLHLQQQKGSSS
Kind of test: SENP7 protease inhibitors, SAR follow-up, biochemical, luminescence, set 2 (AID 588600). The format is functional.

Test [18] has as its target T5, Sentrin-specific protease 6 (Homo sapiens, UniProt Q9GZR1).
T5 sequence (Q9GZR1 whole entry): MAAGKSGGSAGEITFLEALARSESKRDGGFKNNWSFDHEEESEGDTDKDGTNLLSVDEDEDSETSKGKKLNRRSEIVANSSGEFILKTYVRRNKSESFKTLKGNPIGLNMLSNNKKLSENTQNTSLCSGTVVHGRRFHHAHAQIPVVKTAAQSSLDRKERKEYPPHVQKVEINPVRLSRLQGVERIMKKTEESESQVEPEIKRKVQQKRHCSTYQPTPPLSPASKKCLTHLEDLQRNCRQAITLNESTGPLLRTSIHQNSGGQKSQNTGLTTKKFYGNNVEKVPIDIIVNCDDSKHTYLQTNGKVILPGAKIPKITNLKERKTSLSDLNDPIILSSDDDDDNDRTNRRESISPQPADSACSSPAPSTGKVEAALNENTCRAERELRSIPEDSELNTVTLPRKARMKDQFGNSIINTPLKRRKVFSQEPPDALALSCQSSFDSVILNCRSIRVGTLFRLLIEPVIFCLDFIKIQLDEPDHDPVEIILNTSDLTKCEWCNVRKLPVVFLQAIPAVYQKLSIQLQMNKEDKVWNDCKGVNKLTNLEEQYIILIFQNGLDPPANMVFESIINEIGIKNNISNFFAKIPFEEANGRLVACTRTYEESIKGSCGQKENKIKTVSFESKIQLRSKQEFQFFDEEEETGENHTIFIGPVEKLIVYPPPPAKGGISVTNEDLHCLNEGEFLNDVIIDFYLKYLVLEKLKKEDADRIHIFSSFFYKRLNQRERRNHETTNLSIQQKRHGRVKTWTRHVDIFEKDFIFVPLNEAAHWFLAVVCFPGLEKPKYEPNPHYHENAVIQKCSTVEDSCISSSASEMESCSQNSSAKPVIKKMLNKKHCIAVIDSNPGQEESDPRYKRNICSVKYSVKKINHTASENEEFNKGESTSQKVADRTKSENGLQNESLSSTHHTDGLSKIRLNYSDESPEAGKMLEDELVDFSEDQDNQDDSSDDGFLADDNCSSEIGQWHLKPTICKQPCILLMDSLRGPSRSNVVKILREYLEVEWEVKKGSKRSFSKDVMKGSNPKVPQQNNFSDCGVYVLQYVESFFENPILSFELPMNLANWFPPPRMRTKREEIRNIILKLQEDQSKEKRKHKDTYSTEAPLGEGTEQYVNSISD
Kind of test: SENP6 protease inhibitors, SAR follow-up, biochemical, luminescence, set 2 (AID 588598). The format is functional.

Test [19] concerns the target T6, Sentrin-specific protease 8 (Homo sapiens, UniProt Q96LD8).
T6 sequence (Q96LD8 whole entry): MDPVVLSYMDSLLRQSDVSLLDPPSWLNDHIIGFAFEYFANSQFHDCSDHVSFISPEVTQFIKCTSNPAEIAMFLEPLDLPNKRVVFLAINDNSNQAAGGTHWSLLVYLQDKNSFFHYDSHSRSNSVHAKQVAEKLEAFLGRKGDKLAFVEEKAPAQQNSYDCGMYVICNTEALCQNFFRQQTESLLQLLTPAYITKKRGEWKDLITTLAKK
Kind of test: SENP8 protease inhibitors, SAR follow-up, biochemical, luminescence, set 2 (AID 588601). Format: functional.

The target in test [20] is T4, Sentrin-specific protease 7. The test can be described thus: SENP7 protease inhibitors, SAR follow-up, biochemical, luminescence (AID 504497). Format: functional.
The target in test [21] is T7, Caspase-3 (Homo sapiens, UniProt P42574).
T7 sequence (P42574 whole entry): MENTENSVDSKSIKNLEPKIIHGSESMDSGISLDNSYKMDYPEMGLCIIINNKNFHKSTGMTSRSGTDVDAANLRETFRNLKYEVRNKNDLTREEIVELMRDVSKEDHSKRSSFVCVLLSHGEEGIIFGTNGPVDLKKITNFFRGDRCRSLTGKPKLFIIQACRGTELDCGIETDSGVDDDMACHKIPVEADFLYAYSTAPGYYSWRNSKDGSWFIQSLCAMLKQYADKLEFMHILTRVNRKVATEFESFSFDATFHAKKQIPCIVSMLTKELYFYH
Kind of test: SAR Analysis of small molecule inhibitors of Sentrin-specific proteases (SENPs) using a Caspase-3 Selectivity assay. [Related pubchem assays (depositor defined):AID2540, AID2599, AID434973, AID489001]. Format: functional.

The target of test [22] is T6, Sentrin-specific protease 8. The test can be described thus: SENP8 protease inhibitors, SAR follow-up, biochemical, luminescence (AID 504501). The format is functional.
The target in test [23] is T5, Sentrin-specific protease 6. The test can be described thus: SAR Analysis of small molecule inhibitors of Sentrin-specific protease 6 (SENP6) using a Luminescent assay. [Related pubchem assays (depositor defined):AID2582, AID2599]. The format is functional.

Where a name gives a salt, the structure may show the parent alone. Calls of active or inactive are those of the source.

In general, AC50 refers to the concentration giving half of the maximal activity seen. A word on the IC50: it is the concentration that gives 50% inhibition. By EC50 is commonly meant the concentration giving half of the maximal effect.

Sequence of Beta-2 adrenergic receptor (P07550 whole entry, the tested form may be a part): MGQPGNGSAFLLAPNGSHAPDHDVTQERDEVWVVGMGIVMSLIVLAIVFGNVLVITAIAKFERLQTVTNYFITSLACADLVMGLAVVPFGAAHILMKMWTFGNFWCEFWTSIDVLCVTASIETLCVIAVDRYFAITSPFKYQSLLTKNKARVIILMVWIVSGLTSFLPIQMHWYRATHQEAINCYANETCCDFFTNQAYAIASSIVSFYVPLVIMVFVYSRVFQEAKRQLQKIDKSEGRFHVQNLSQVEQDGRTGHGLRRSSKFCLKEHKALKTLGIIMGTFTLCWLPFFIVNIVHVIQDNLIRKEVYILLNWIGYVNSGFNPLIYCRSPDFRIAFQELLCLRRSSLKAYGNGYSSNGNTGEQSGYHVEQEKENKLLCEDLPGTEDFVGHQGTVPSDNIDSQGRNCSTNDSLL
T1 sequence (P49327 whole entry, the tested form may be a part): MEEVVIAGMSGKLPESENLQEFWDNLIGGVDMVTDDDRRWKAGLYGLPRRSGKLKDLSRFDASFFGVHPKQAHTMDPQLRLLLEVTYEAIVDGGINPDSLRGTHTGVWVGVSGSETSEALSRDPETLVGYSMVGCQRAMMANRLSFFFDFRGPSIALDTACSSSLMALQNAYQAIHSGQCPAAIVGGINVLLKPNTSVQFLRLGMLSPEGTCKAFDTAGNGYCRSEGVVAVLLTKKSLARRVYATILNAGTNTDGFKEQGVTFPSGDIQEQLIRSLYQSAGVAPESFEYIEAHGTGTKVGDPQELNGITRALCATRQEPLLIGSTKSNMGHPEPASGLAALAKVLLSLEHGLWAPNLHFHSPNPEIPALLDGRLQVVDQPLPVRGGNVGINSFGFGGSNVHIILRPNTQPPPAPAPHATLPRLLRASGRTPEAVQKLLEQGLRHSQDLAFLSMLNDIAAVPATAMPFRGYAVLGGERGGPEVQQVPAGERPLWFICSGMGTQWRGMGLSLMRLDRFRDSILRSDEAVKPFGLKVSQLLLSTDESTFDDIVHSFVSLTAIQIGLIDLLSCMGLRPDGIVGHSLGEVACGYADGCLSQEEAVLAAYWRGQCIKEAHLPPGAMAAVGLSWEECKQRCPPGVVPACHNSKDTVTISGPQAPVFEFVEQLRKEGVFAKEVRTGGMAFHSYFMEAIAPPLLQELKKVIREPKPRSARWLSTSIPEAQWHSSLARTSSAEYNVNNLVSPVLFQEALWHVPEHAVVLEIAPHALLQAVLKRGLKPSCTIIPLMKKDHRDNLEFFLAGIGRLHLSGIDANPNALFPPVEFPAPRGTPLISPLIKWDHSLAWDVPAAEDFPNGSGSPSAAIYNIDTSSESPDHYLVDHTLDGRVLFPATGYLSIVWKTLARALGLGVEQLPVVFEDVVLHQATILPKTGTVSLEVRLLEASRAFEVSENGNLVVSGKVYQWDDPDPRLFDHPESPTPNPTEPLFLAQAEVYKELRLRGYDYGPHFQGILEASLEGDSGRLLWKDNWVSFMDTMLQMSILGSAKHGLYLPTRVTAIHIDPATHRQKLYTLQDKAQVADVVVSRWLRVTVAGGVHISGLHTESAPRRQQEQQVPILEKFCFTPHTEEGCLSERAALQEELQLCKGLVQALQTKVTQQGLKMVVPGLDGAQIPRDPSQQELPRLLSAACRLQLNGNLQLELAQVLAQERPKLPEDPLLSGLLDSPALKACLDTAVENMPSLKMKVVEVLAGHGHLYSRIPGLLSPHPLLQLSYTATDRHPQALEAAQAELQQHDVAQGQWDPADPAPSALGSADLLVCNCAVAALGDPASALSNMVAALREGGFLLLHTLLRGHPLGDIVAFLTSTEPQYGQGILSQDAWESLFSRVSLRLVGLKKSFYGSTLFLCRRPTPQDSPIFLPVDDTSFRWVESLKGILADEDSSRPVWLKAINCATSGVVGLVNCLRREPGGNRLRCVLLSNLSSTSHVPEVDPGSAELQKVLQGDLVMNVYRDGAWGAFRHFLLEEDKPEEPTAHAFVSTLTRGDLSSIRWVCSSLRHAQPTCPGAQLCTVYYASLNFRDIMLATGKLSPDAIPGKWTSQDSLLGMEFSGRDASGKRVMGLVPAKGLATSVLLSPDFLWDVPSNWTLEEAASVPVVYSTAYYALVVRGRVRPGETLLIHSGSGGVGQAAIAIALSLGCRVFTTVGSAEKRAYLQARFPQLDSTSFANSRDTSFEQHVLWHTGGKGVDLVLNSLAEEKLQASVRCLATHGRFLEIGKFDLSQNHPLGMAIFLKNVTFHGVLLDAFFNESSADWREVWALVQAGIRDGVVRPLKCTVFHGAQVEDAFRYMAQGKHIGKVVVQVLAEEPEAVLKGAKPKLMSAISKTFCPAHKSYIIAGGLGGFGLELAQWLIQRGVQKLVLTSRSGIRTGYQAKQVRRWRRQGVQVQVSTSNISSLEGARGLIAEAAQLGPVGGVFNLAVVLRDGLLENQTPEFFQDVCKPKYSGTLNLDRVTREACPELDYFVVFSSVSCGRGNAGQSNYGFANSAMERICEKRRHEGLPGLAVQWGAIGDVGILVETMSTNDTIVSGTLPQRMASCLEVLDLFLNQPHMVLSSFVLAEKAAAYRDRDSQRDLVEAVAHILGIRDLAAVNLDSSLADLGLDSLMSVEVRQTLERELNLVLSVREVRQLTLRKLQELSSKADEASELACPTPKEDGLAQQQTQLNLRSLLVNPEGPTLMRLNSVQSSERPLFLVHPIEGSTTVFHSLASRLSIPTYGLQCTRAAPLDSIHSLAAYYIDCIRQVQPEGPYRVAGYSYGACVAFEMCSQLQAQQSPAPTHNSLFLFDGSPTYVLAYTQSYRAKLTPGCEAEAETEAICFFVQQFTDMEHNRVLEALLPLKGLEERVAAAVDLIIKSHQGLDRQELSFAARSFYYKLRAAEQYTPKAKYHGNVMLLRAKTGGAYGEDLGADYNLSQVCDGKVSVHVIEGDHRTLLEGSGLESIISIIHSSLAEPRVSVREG
Sequence of Phospholipase A2 (P04054 whole entry): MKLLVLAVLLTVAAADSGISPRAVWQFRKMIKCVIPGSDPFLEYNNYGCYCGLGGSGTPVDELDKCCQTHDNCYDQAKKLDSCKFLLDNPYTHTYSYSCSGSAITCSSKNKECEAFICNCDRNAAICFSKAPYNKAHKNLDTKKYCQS
Sequence of Cysteine protease ATG4B (Q9Y4P1 whole entry): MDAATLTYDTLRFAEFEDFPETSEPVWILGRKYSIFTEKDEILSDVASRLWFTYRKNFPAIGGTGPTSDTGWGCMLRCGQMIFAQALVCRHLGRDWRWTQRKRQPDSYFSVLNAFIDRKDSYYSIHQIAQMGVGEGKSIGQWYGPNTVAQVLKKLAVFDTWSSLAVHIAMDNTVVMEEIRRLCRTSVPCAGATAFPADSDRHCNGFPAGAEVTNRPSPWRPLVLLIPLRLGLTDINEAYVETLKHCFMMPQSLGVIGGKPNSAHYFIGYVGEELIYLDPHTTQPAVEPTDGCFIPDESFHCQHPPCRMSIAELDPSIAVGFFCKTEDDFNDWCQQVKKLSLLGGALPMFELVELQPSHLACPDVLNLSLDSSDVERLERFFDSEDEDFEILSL
Sequence of Beta Lactamase (Q932Y6 whole entry): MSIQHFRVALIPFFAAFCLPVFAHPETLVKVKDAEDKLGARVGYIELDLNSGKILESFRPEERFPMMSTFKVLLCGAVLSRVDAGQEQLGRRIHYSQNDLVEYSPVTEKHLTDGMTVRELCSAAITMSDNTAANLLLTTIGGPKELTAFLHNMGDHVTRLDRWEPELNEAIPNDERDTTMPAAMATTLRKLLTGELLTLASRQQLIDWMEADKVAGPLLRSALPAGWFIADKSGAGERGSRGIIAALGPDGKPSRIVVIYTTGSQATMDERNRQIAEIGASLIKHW

As for `CCCNC(=O)c1nnsc1S(=O)(=O)c1ccc(Cl)cc1`, the AC50 in [1] was 16.4 µM (active); in test [4] it was 11.7 µM (active); in test [5], 3.63 µM (active); in test [6], 2.88 µM (active); in test [9] it was 602 nM (active). Moreover, the IC50 in [2] was 2.45 µM (active); in test [3], 12.7 µM (active); in [8], 10.4 µM (active); in [10], 16.3 µM (inactive). The EC50 in test [7] is 9.54 µM (active).
Take `COc1ccc(C(CC(=O)NCc2ccccc2)C(C)C)cc1` (stereo unspecified): the concentration for half-maximal inhibition (IC50) in test [11] was 7.25 µM (active); in test [12] it was 8.14 µM (active).
For the molecule `CCC(NC(C)C)C(O)c1ccc(O)c(O)c1` (stereo unspecified) [ISOETHARINE MESYLATE], the EC50 in test [13] is 24.1 µM (active); in [7], 3.84 µM (active); in test [14], 125 µM (active); in test [15], 20.7 µM (active); in [16], > 300 µM (not active).
Consider `O=C(Nc1nc2ccccc2s1)c1cc2ccccc2s1`, for which the IC50 in [17] is 589 nM (active); in test [18], 580 nM (active); in test [19] it was 543 nM (active); in test [20] it was 490 nM (active); in test [21], 510 nM (active); in test [22], 660 nM (active). For the same molecule, the IC50 in [23] is 670 nM (active).
As to `Fc1ccc(CNC(=S)NCc2ccccc2)cc1`, the results for the IC50 in test [11] and in test [12] were 10.6 µM (active) and 18.4 µM (active), respectively.
